Data as given in US8658660B2, “5-fluoro-4-imino-3,4-dihydropyrimidin-2-(1H)-ones derivatives” (Dow AgroSciences, LLC., priority 2011, dated 2014).

Assays:
[1] = tested on: Mycosphaerella graminicola; anamorph: Septoria tritici (SEPTTR); experiment: Evaluation of fungicidal activity: leaf blotch of wheat (SEPTTR); format: in vivo, Septoria tritici on wheat plants (variety Yuma); conditions: wheat plants, percent control vs untreated inoculated plants
Procedure: Evaluation of Fungicidal Activity: Leaf Blotch of Wheat (Mycosphaerella graminicola; anamorph: Septoria tritici; Bayer code […]) Wheat plants (variety Yuma) were grown from seed in a greenhouse in 50% mineral soil/50% soil-less Metro mix until the first leaf was fully emerged, with 7-10 seedlings per pot. These plants were inoculated with an aqueous spore suspension of Septoria tritici either prior to or after fungicide treatments. After inoculation the plants were kept in 100% relative humidity (one day in a dark dew chamber followed by two to three days in a lighted dew chamber) to permit spores to germinate and infect the leaf. The plants were then transferred to a greenhouse for disease to develop. The following table presents the activity of typical compounds of the present disclosure when evaluated in these experiments. The effectiveness of the test compounds in controlling disease was determined by assessing the severity of disease on treated plants, then converting the severity to percent control based on the level of disease on untreated, inoculated plants.

[2] = tested on: Venturia inaequalis (VENTIN); experiment: Evaluation of fungicidal activity: apple scab (VENTIN); format: in vivo; conditions: apple seedlings, percent control vs untreated inoculated plants
Procedure: Evaluation of Fungicidal Activity: Apple Scab (Venturia inaequalis; Bayer code […]) Apple seedlings (McIntosh or Golden Delicious) were grown in Metro mix and inoculated with a spore suspension containing 5×10^5 spore/ml. Plants were placed in a dew room for 24 hours with 100% relative humidity and then transferred to a greenhouse with a temperature of 18° C. for disease to develop. The following table presents the activity of typical compounds of the present disclosure when evaluated in these experiments. The effectiveness of the test compounds in controlling disease was determined by assessing the severity of disease on treated plants, then converting the severity to percent control based on the level of disease on untreated, inoculated plants.

Structure (SMILES)	SEPTTR 100 PPM 1DP (One-Day Protectant activity, % disease control rating) [1]	SEPTTR 100 PPM 3DC (Three-Day Curative activity, % disease control rating) [1]	VENTIN 100 PPM 1DP (One-Day Protectant activity, % disease control rating) [2]
Cn1c(=O)[nH]cc(F)c1=N [Cmpd 1, 5-fluoro-4-imino-3-methyl-3,4-dihydropyrimidin-2(1H)-one]	A (76-100)	A (76-100)	B (51-75)
N=c1c(F)c[nH]c(=O)n1Cc1cccs1 [Cmpd 2, 5-fluoro-4-imino-3-(thiophen-2-ylmethyl)-3,4-dihydropyrimidin-2(1H)-one]	B (51-75)	A (76-100)	–
[2H]C([2H])([2H])n1c(=O)[nH]cc(F)c1=N [Cmpd 3, 5-fluoro-4-imino-3-(trideuteriomethyl)-1H-pyrimidin-2-one]	D (0-25)	D (0-25)	–
